From patent US6919424B2, “Binding peptides for carcinoembryonic antigen (CEA)” (Dyax Corp., priority 2000, dated 2005)
Bridge positions count the residues as written; N and C are the ends. Ends that are not written are not given here. Peptide text beside a SMILES is read from it. * marks the point of attachment. 5FAM = O=C1OC2(c3ccc(O)cc3Oc3cc(O)ccc32)c2ccc(C(=O)*)cc21

Key:
[1] = target: T1, CEA (Homo sapiens, UniProt P06731); assay: Fluorescence anisotropy direct binding to CEA; conditions: for binding to CEA (in words): compared with binding to NA3
T1 construct: purchased
T1 sequence (P06731 35-676): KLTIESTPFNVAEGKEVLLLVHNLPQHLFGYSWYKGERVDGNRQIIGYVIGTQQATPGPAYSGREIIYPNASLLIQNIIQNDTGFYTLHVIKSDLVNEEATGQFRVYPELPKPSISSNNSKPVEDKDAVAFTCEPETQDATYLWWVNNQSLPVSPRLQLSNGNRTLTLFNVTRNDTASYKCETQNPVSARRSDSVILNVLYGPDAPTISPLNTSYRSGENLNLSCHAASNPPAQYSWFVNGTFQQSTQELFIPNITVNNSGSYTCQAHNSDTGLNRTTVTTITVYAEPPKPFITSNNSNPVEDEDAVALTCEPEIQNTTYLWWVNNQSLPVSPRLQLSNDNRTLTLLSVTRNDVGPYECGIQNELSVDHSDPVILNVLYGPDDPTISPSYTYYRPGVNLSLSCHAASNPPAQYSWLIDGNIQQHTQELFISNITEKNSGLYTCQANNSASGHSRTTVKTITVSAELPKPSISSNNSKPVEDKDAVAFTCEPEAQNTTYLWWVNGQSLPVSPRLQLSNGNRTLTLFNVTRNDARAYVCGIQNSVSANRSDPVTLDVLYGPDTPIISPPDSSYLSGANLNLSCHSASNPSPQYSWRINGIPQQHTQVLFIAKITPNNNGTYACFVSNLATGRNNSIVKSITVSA
Protocol: Dissociation constants were determined using fluorescence anisotropy, through direct binding measurements to either NA-3 or CEA in PBS with 0.01% TWEEN 20. In direct binding assays, the concentration of the fluorescein-labeled peptide is held constant and the concentration of NA3 is varied. In the competition experiment, the concentration of the fluorescein-labeled peptide and the NA3 target are held constant and the concentration of competitor peptide (from Isolate 12-H12) is varied. The change in anisotropy is fit to the appropriate equation via nonlinear regression to obtain the apparent Kd. Isolate 304A-12-H12, previously isolated from Lib2 and assayed for binding, was analyzed in parallel as a control. Replicate analyses were run for certain binders and are reported to confirm accuracy and precision of measurements. KD standard error values are calculated from the nonlinear regression (SIGMAPLOT, SPSS Science, Chicago, Ill.).

[2] = target: T2, NA3 (Homo sapiens, UniProt P06731); assay: Phage ELISA with varying amounts of NA3 per well (FIGS. 2, 4, 5); type: binding; conditions: FIG. 2; 100, 50, 10, 5, 1, 0 ng per well
T2 construct: H6NA3, consisting of a hexahistidine leader and the N and A3 domains of CEA, was used
T2 sequence (P06731 35-144 limits assumed): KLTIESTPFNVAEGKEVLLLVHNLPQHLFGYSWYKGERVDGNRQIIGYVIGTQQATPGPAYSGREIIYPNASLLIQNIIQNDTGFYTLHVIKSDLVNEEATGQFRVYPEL
T2 sequence (P06731 501-588 limits assumed): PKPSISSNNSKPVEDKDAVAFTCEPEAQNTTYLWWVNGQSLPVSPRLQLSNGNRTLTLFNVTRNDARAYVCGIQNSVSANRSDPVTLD
Protocol: The first bar for each sample represents wells each having 100 ng CEA. Successive bars represent 50 ng, 10 ng, 5 ng, 1 ng, and 0 ng CEA per well.
The first bar for each sample represents wells each having 30 ng NA3. Successive bars represent 10 ng, 3 ng, and 0 ng NA3 per well.
Several Isolates gave especially strong ELISA signals and these were tested further.
Several Isolates gave especially strong ELISA signals and these were tested further. […] Isolate 304A-12-H12 (designated DX306) was assayed in parallel as a basis for comparison.

[3] = target: T3, H6NA3 (Homo sapiens, UniProt P06731); assay: Fluorescence anisotropy direct binding to H6NA3 / NA3
T3 construct: H6NA3, consisting of a hexahistidine leader and the N and A3 domains of CEA, was used
T3 sequence (P06731 35-144 limits assumed): T2 sequence (P06731 35-144 limits assumed)
T3 sequence (P06731 501-588 limits assumed): T2 sequence (P06731 501-588 limits assumed)
Protocol: Each peptide was also provided with a C-terminal amide-functional linker useful for immobilizing peptides to various chromatographic substrates: -Ala18-Pro19-Gly20-Gly-Glu-Gly-Gly-Gly-Ser-Lys-CONH2 (SEQ ID NO:28). […] Aliquots of each peptide were fluorescently labeled using NHS-fluorescein reacted with the ε-amino side group of the C-terminal lysine.
Dissociation constants were determined using fluorescence anisotropy, through direct binding measurements and competition experiments. In direct binding assays, the concentration of the fluorescein-labeled peptide is held constant and the concentration of H6NA3 is varied. In the competition experiment, the concentration of the fluorescein-labeled peptide and the H6NA3 target are held constant and the concentration of a competitor (cT84.66, unlabeled) is varied. The change in anisotropy is fit to the appropriate equation via nonlinear regression to obtain the apparent Kd.
Aliquots of each peptide were fluorescently labeled using NHS-fluorescein reacted with the ε-amino side group of the C-terminal lysine.
Dissociation constants were determined using fluorescence anisotropy, through direct binding measurements (see Example 6).
Peptides including the binding domain of the CEA binder Isolates were synthesized by solid-phase synthesis. Each peptide was also provided with a C-terminal amide-functional linker useful for immobilizing peptides to various chromatographic substrates: -Ala18-Pro19-Gly20-Gly-Glu-Gly-Gly-Gly-Ser-Lys-CONH2 (SEQ ID NO:28). […] Aliquots of each peptide were fluorescently labeled using NHS-fluorescein reacted with the ε-amino side group of the C-terminal lysine.
Dissociation constants were determined using fluorescence anisotropy, through direct binding measurements to either NA-3 or CEA in PBS with 0.01% TWEEN 20. […] Isolate 304A-12-H12, previously isolated from Lib2 and assayed for binding, was analyzed in parallel as a control. […] KD standard error values are calculated from the nonlinear regression (SIGMAPLOT, SPSS Science, Chicago, Ill.).

Q: With `CC[C@H](C)[C@@H]1NC(=O)[C@H](Cc2ccccc2)NC(=O)[C@H](CCC(=O)O)NC(=O)[C@@H](NC(=O)[C@@H](NC(=O)[C@H](Cc2c[nH]c3ccccc23)NC(=O)[C@H](CC(=O)O)NC(=O)[C@@H](N)CO)C(C)C)CSSC[C@@H](C(=O)N[C@@H](CC(N)=O)C(=O)N[C@H](C(=O)N[C@@H](CC(C)C)C(=O)N[C@@H](C)C(=O)N2CCC[C@H]2C(=O)NCC(=O)NCC(=O)N[C@@H](CCC(=O)O)C(=O)NCC(=O)NCC(=O)NCC(=O)N[C@@H](CO)C(=O)N[C@@H](CCCCNC(=O)c2ccc3c(c2)C(=O)OC32c3ccc(O)cc3Oc3cc(O)ccc32)C(N)=O)C(C)C)NC(=O)[C@H](Cc2ccccc2)NC(=O)[C@H](Cc2c[nH]c3ccccc23)NC(=O)[C@H](CCC(N)=O)NC(=O)[C@H](CO)NC(=O)[C@H](CCCCN)NC1=O` [Isolate 315A-17-G08] (H-SDWVCEFIKSQWFCNVLAPGGEGGGSK(5FAM)-NH2; disulfide 5-14; N-terminus assumed) as the compound, how does the “binding to CEA (in words)” value [1] read?
A: effectively bound CEA, but not as strongly as they bound NA3

Q: How did the “phage ELISA binding profile to varying amounts of NA3” value (shortened to “phage ELISA binding profile”) [2] turn out when “NWVCNLFKNQWFCNSY (cysteine pairing not given here) [Isolate G08]” was run?
A: drops off very quickly as the amount of NA3 drops below 50 ng per well

Q: With `CC(C)C[C@@H]1NC(=O)[C@H](CC(N)=O)NC(=O)[C@@H](NC(=O)[C@@H](NC(=O)[C@H](Cc2c[nH]c3ccccc23)NC(=O)[C@H](CC(=O)O)NC(=O)[C@@H](N)CO)C(C)C)CSSC[C@@H](C(=O)N[C@@H](CC(=O)O)C(=O)N[C@H](C(=O)N[C@@H](CC(C)C)C(=O)N[C@@H](C)C(=O)N2CCC[C@H]2C(=O)NCC(=O)NCC(=O)N[C@@H](CCC(=O)O)C(=O)NCC(=O)NCC(=O)NCC(=O)N[C@@H](CO)C(=O)N[C@@H](CCCCNC(=O)c2ccc3c(c2)C(=O)OC32c3ccc(O)cc3Oc3cc(O)ccc32)C(N)=O)[C@@H](C)O)NC(=O)[C@H](Cc2ccccc2)NC(=O)[C@H](Cc2c[nH]c3ccccc23)NC(=O)[C@H](CCC(N)=O)NC(=O)[C@H](CC(N)=O)NC(=O)[C@H](CCCCN)NC(=O)[C@H](Cc2ccccc2)NC1=O` [Isolate 304A-14-A12, DWVCNLFKNQWFCDTL] as the compound, how does the “increase in affinity compared to the Isolate G08 peptide” value ([3]; from KD of Table 7 versus Table 3) read?
A: several fold increase in affinity

Q: And the “phage ELISA binding profile” value [2]?
A: do not drop off so quickly

Q: Which “phage ELISA binding profile” value [2] does the source give for “DWICNLFKNQWFCGPL (CEA binding polypeptide) [Isolate 304A-15-E04]” here?
A: at least as good as G08 and A07

Q: `CC[C@H](C)[C@H](NC(=O)[C@H](CC(N)=O)NC(=O)[C@@H]1CSSC[C@H](NC(=O)[C@@H](NC(=O)[C@H](Cc2c[nH]c3ccccc23)NC(=O)[C@H](CC(=O)O)NC(=O)[C@@H](N)CO)C(C)C)C(=O)N[C@@H](CCC(=O)O)C(=O)N[C@@H](Cc2ccccc2)C(=O)N[C@@H](Cc2ccccc2)C(=O)N[C@@H](CCCCN)C(=O)N[C@@H](CC(=O)O)C(=O)N[C@@H](CCC(N)=O)C(=O)N[C@@H](Cc2c[nH]c3ccccc23)C(=O)N[C@@H](Cc2ccccc2)C(=O)N1)C(=O)N[C@@H](CC(C)C)C(=O)N[C@@H](C)C(=O)N1CCC[C@H]1C(=O)NCC(=O)NCC(=O)N[C@@H](CCC(=O)O)C(=O)NCC(=O)NCC(=O)NCC(=O)N[C@@H](CO)C(=O)N[C@@H](CCCCNC(=O)c1ccc2c(c1)C(=O)OC21c2ccc(O)cc2Oc2cc(O)ccc21)C(N)=O` [Isolate 315A-18-E02] (H-SDWVCEFFKDQWFCNILAPGGEGGGSK(5FAM)-NH2; disulfide 5-14; N-terminus assumed) was tested. Which “binding to CEA (in words)” value [1] did it give?
A: effectively bound CEA, but not as strongly as they bound NA3

Q: For “DWVCNLFKNQWFCDVP (CEA binding polypeptide) [Isolate 304A-14-B02]”, which “phage ELISA binding profile” value [2] is on record?
A: at least as good as G08 and A07

Q: Which “phage ELISA binding profile” value [2] does the source give for “DWVCENKKDQWTCNLL (cysteine pairing not given here) [Isolate A07]” here?
A: drops off very quickly as the amount of NA3 drops below 50 ng per well

Q: With `CC(C)C[C@H](NC(=O)[C@H](CO)NC(=O)[C@H](CC(N)=O)NC(=O)[C@@H]1CSSC[C@H](NC(=O)[C@@H](NC(=O)[C@H](Cc2c[nH]c3ccccc23)NC(=O)[C@H](CC(=O)O)NC(=O)[C@@H](N)CO)C(C)C)C(=O)N[C@@H](CCC(=O)O)C(=O)N[C@@H](Cc2c[nH]c3ccccc23)C(=O)N[C@@H](CC(C)C)C(=O)N[C@@H](CCCCN)C(=O)N2CCC[C@H]2C(=O)N[C@@H](CCC(N)=O)C(=O)N[C@@H](Cc2c[nH]c3ccccc23)C(=O)N[C@@H](Cc2ccc(O)cc2)C(=O)N1)C(=O)N[C@@H](C)C(=O)N1CCC[C@H]1C(=O)NCC(=O)NCC(=O)N[C@@H](CCC(=O)O)C(=O)NCC(=O)NCC(=O)NCC(=O)N[C@@H](CO)C(=O)N[C@@H](CCCCNC(=O)c1ccc2c(c1)C(=O)OC21c2ccc(O)cc2Oc2cc(O)ccc21)C(N)=O` [Isolate 315A-17-B12] (H-SDWVCEWLKPQWYCNSLAPGGEGGGSK(5FAM)-NH2; disulfide 5-14; N-terminus assumed) as the compound, how does the “CEA KD (μM) direct binding” value ([1]; Table 10, commercial CEA, PBS with 0.01% TWEEN 20) read?
A: (no binding)

Q: What about the “binding to CEA (in words)” value [1] of the same compound?
A: did not appear to bind CEA

Q: With `CC(C)C[C@H](NC(=O)[C@@H](NC(=O)[C@H](CC(=O)O)NC(=O)[C@@H]1CSSC[C@H](NC(=O)[C@@H](NC(=O)[C@H](Cc2c[nH]c3ccccc23)NC(=O)[C@H](CC(=O)O)NC(=O)[C@@H](N)CO)C(C)C)C(=O)N[C@@H](CCC(=O)O)C(=O)N[C@@H](Cc2ccc(O)cc2)C(=O)N[C@@H](Cc2ccccc2)C(=O)N[C@@H](CCCCN)C(=O)N[C@@H](CC(N)=O)C(=O)N[C@@H](CCC(N)=O)C(=O)N[C@@H](Cc2c[nH]c3ccccc23)C(=O)N[C@@H](Cc2ccccc2)C(=O)N1)[C@@H](C)O)C(=O)N[C@@H](C)C(=O)N1CCC[C@H]1C(=O)NCC(=O)NCC(=O)N[C@@H](CCC(=O)O)C(=O)NCC(=O)NCC(=O)NCC(=O)N[C@@H](CO)C(=O)N[C@@H](CCCCNC(=O)c1ccc2c(c1)C(=O)OC21c2ccc(O)cc2Oc2cc(O)ccc21)C(N)=O` [Hybrid H12/A12, DWVCEYFKNQWFCDTL] as the compound, how does the “CEA binding characteristics compared with other isolates” value ([3]; direct binding KD, Table 7) read?
A: comparable to the Isolates obtained from the initial library screen
